This data set addresses T1, microsomal recombinant human cytochrome P450 2A6 (CYP2A6) (Homo sapiens, UniProt P11509).
T1 sequence (P11509 1-494): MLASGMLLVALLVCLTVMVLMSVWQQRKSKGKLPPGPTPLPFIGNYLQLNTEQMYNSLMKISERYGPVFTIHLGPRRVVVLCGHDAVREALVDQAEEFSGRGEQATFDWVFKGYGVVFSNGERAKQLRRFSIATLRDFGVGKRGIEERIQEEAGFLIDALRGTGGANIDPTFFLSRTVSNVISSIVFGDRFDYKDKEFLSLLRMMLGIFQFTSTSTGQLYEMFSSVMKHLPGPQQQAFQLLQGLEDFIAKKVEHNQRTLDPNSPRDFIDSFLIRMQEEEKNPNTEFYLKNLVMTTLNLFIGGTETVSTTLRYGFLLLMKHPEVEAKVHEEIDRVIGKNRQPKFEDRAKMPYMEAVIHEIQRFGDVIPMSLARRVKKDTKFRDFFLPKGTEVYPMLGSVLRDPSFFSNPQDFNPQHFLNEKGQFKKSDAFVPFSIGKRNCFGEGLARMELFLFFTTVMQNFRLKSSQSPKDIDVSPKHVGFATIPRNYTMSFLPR
The data set is described as follows: Vivid fluorescence-based CYP2A6 inhibition screening. It is filed as biochemical.

Entries after “also recorded” stand apart in the source; their conditions may differ.

The IC50 is the concentration at which inhibition is half-maximal. For the compound `COc1cc(C=O)ccc1O` [Vanillin, vanillin], the IC50 is 70 µM. In addition, the CYP2A6 inhibition result (flavoring agent at 500 μM) is “near-maximal inhibition”. Consider `CCOc1cc(C=O)ccc1O` [Ethyl vanillin, ethyl-vanillin], for which the IC50 was 69.4 µM. For the setting “flavoring agent at 500 μM”, the CYP2A6 inhibition result is “near-maximal inhibition”. On to `O=Cc1ccccc1` [Benzaldehyde, benzaldehyde], for which the IC50 is 3 µM. As for `O=C/C=C/c1ccccc1` [Cinnamaldehyde, trans-cinnamaldehyde], the IC50 is 1.1 µM.

Take `CC(=O)OCCC(C)C` [Isoamyl Acetate, isoamyl acetate]: the IC50 was > 500 µM. Also, the CYP2A6 inhibition result (flavoring agent up to 500 μM (highest concentration)) is “negligible inhibition; also recorded: no inhibition”.

Values taken from publication PMC7422938 (Chemical research in toxicology, 2020).
